This is an account of results in paper PMC5187537, “Antioxidant Activity of Oat Proteins Derived Peptides in Stressed Hepatic HepG2 Cells” (Antioxidants, 2016).

Peptide text beside a SMILES is read from it.

Test [1] can be described thus: Oxygen radical absorbance capacity (ORAC) assay. The settings on record: fluorescein 0.08 µM, AAPH 150 mM, 37 °C, 50 min, potassium phosphate buffer pH 7.4 75 mM, peptides 100 and 200 µM; triplicate, mean ± STDEV. As for the experimental part:
The ORAC assay was performed as previously described. The decay of fluorescein (0.08 µM) by AAPH (150 mM) at 37 °C was recorded at 1 min intervals over 50 min using a BioTek™ FL × 800™ fluorescent microplate reader (Fisher Scientific, Nepean, ON, Canada) with fluorescence filters (excitation 485/20 nm, emission 528/20 nm). Potassium phosphate buffer (pH 7.4, 75 mM) was used to dissolve peptides (100 and 200 µM) and Trolox standards (6.25–100 µM). Data analysis was done with Gen5^TM software (Fisher Scientific, Nepean, ON, Canada), and ORAC values were expressed as µM Trolox Equivalent (TE)/µM peptide using the standard curve.

Test [2] relates to HepG2 cells. It is filed as cell-based, Human. The following applies: 50 or 100 µM peptide 24 h, then 20 mM AAPH 24 h, MTT. As for the experimental part:
Human hepatocellular carcinoma (HepG2) cells were purchased from the American Type Culture Collection (ATCC; Manassas, VA, USA). They were cultured at 37 °C in a humidified incubator with 5% CO2 and 95% air. Dulbecco’s Minimal Essential Media (DMEM) supplemented with 10% (v/v) Fetal Bovine Serum was used for the maintenance of cells. […] The MTT (3-(4,5-dimethylthiazol-2-yl)-2,5-diphenyltetrazolium bromide) assay, as described in an earlier research, was used for cytotoxicity and cytoprotective tests. […] Following another 24 h incubation, cells were washed twice with 200 µL of PBS. Ten µL of MTT solution (5 mg/mL in PBS) and 100 µL of media were added to each well. After 1 h, MTT solution was removed, and 50 µL DMSO were added. Absorbances were recorded at 570 nm with 630 nm background subtraction using a BioTek Epoch™ microplate reader (Fisher Scientific, Nepean, ON, Canada). Untreated cells were used as negative control (NC) and cells treated with only AAPH were used as positive control (PC).

Test [3] deals with glutathione peroxidase (GPx). Nature of the test: Glutathione peroxidase activity of lysates of AAPH-stressed cells. It is filed as cell-based, Human. The following applies: then AAPH 24 h; for Effect on GPx activity of AAPH-stressed cells: 50 µM peptide 24 h; for Increase of GPx activity above that of normal cells: 100 µM peptide 24 h, p < 0.05. As for the experimental part: Cells were seeded at 1 × 10^6 cells/plate in 60 mm tissue culture plates and allowed to grow for 24 h. In each plate, cells were washed twice with 4 mL of PBS (pH 7.2), and treated with 4 mL peptide samples (P1, P2, P6, P7) dissolved in culture media at 50 or 100 µM for 24 h. After removal of peptide solutions, cells were washed twice with 4 mL of PBS/plate and treated with 4 mL of […] dissolved in culture media and allowed to incubate for 24 h. Cells in each culture plate were harvested by incubation (5 min) with 0.5 mL of 0.25% trypsin, addition of 1 mL of culture media and centrifugation at 1000× g for 5 min. Cell pellets were washed with ice cold PBS (500 µL each) until no pink color was observed, re-suspended in ice cold PBS (300 µL) for the superoxide dismutase (SOD) assay, 500 µL for glutathione peroxidase (GPx) and catalase (CAT) assays. For total glutathione assay, 300 µL of 5% ice cold sulfosalicylic acid bubbled with 100% nitrogen was used for cell lysis. Cells were lysed by sonication on ice for 1 min using a probe-type sonicator (Vibra-Cell, Sonics and Materials Inc., Newtown, CT, USA) pulsing at 15 s on and 10 s off cycles. Following centrifugation of cell lysate at 13,000× g (4 °C), pellets containing cell debris were discarded, while supernatants were used for determination of glutathione content. Protein contents were determined using a modified Lowry assay.
The activity of GPx was determined as previously described in a 96-well plate. Briefly, in each well, 187.5 µL of potassium phosphate buffer was mixed with 12.5 µL NADPH (4 mM) solution and 25 µL of cell lysates or buffer (blank), and incubated at 30 °C for 5 min. Then, 100 µL of 0.15% cumene hydroperoxide was added in each well to begin the reaction. The rate of disappearance of NADPH was followed at 340 nm for 5 min. The activity was expressed as Units of GPx activity/mg protein.

Test [4] relates to intracellular ROS of HepG2 cells. Nature of the test: Intracellular reactive oxygen species, DCFH2-DA assay. The class given is cell-based, Human. The following applies: 100 µM peptide 24 h, then 20 mM AAPH 24 h, 40 µM DCFH2-DA, fluorescence 60 min. As for the experimental part: The measurement of intracellular ROS was determined using a method described by Wolfe and Rui, with modifications. HepG2 cells were seeded at 4 × 10^4 cells/well in a 96-well tissue culture plate and were treated for 24 h with 100 µM of peptide dissolved in media, with the exception of NC and PC controls. Media was removed, cells washed twice with PBS, incubated (24 h) with 20 mM AAPH and washed again with PBS. Two hundred µL of 40 µM DCFH2-DA dissolved in buffer was added, and fluorescent intensity was immediately recorded at 2 min intervals for a total of 60 min. The percentage increase in fluorescent intensity was calculated as shown in Equation (1). (1) Fluorescent increase (%)=Final reading−Initial reading/Initial reading×100

As for `CC[C@H](C)[C@H](NC(=O)[C@H](Cc1ccc(O)cc1)NC(=O)[C@@H](NC(=O)[C@H](CC(C)C)NC(=O)CNC(=O)[C@@H]1CCCN1C(=O)[C@H](C)NC(=O)[C@H](CC(N)=O)NC(=O)[C@H](Cc1c[nH]cn1)NC(=O)[C@@H](N)Cc1ccc(O)cc1)C(C)C)C(=O)N[C@@H](CC(C)C)C(=O)O` [P6] (H-YHNAPGLVYIL-OH; N-terminus and C-terminus assumed), the “ORAC value (peroxyl radical scavenging activity)” value in test [1] is recorded as 0.14–0.61 µM TE/µM. Further, in test [2], the “Cytoprotective effect against AAPH-induced damage” value is listed as “cytoprotective”. Besides, in test [3], the “Effect on GPx activity of AAPH-stressed cells” value was “completely restored the activity” and the “Increase of GPx activity above that of normal cells” value is listed as 38.6%. In addition, the “Intracellular reactive oxygen species” value in test [4] is on record as “reduced production of intracellular reactive oxygen species”.
As to `CC[C@H](C)[C@H](NC(=O)[C@H](Cc1ccc(O)cc1)NC(=O)[C@@H](NC(=O)[C@H](CC(C)C)NC(=O)CN)C(C)C)C(=O)N[C@@H](CC(C)C)C(=O)O` [P2] (H-GLVYIL-OH; N-terminus and C-terminus assumed), the “ORAC value (peroxyl radical scavenging activity)” value in test [1] was 0.67 ± 0.02 µM TE/µM. Also, in test [3], the “Effect on GPx activity of AAPH-stressed cells” value is “completely restored the activity” and the “Increase of GPx activity above that of normal cells” value was determined as 30.2%. Besides, in test [4], the “Intracellular reactive oxygen species” value is “reduced production of intracellular reactive oxygen species”.
